Where “and” joins values, the source holds several entries; their conditions need not be identical. Equal entries are not always repeated. Structures can show the parent of a compound that is named as a salt. Where two headings read alike, the source gives them in different places.
How the values were obtained:
[1] = biological target: muscarinic cholinergic receptor; type: binding, rat; details: rat cerebral cortex, ^3 H-QNB 0.25 nM, 25° C., 120 minutes, pH 7.4
[2] = biological target: muscarinic cholinergic receptor; experiment: [^3 H]-Cis-methyldioxolane (^3 H-CD) Binding Assay (High Affinity); details: rat cerebral cortex, ^3 H-CD 1.0 nM, 25° C., 120 minutes, pH 7.4; high affinity agonist binding

Compound | Ki [1] | Ki [2]
CCN(CC)CC#CCN1CCC(C)C1=O (racemic) [Racemic 1-[4-(1-Diethylamino)-2-butynyl]-3-methyl-2-pyrrolidinone] | 6 µM | 5.1 µM
CC1CCN(CC#CCN(C)C)C1=O (racemic) [Racemic 1-[4-(1-Dimethylamino)-2-butynyl]-3-methyl-2-pyrrolidinone] | 21 µM | 0.41 µM
CC1CCN(CC#CCN2CCC2)C1=O (racemic) [Racemic 1-[4-(1-azetidinyl)-2-butynyl-3-methyl-2-pyrrolidinone, Racemic 1-[4-(1-azetidinyl)-2-butynyl]-3-methyl-2-pyrrolidinone] | 2 µM | 0.054 µM
CC1CCN(CC#CCn2ccnc2)C1=O (racemic) [Racemic 1-[4-(1H-imidazol-1-yl)-2-butynyl]-3-methyl-2-pyrrolidinone] | 6.7 µM | 0.057 µM
CN(C)CC#CCN1CCC(C)(O)C1=O (racemic) [Racemic-1-[4-Dimethylamino)-2-butynyl]-3-hydroxy-3-methyl-2-pyrrolidinone, Racemic 1-[4-(Dimethylamino)-2-butynyl]-3-hydroxy-3-methyl-2-pyrrolidinone] | > 100 µM | > 100 µM
CC1(O)CCN(CC#CCN2CCCC2)C1=O (racemic) [Racemic-3-Hydroxy-3-methyl-1-[4-(1-pyrrolidinyl)-2-butynyl]-2-pyrrolidinone, Racemic 3-hydroxy-3-methyl-1-[4-(1-pyrrolidinyl) 2-butynyl]-2-pyrrolidinone] | 8.6 µM | 5.7 µM
O=C1C(O)CCN1CC#CCn1ccnc1 (stereo not drawn) [1-[4-(1H-Imidazol-1-yl)-2-butynyl]-3-hydroxy-2-pyrrolidinone] | > 100 µM | 2 µM
O=C(NCC#CCN1CCCC1)C(F)(F)F [2,2,2-Trifluoro-N-[4-(1-pyrrolidinyl)-2-butynyl]acetamide monohydrochloride] | 18.5 µM | 8.88 µM
NCC#CCN1CCCC1 [4-(1-Pyrrolidinyl)-2-butyn-1-amine dihydrochloride] | > 100 µM | 13 µM
CC(C)(C)[Si](C)(C)O[C@@H]1CCN(CC#CCN2CCC2)C1=O [(R)-1-[4-(1-Azetidinyl)-2-butynyl]-3-[[(1,1-dimethylethyl)dimethylsilyl]oxy]-2-pyrrolidinone] | > 100 µM | > 100 µM
CS[C@@H]1CCN(CC#CCN(C)C)C1=O [(R)-1-[4-(Dimethylamino)-2-butynyl]-3-(methylthio)-2-pyrrolidinone] | 108 µM | 6.1 µM
C[C@@H]1CCN(CC#CCN(C)C)C1=O [(R)-1-[4-(Dimethylamino)-2-butynyl]-3-methyl-2-pyrrolidinone] | 7.7 µM | 0.073 µM
CN(C)CC#CCN1CC[C@@H](O)C1=O [(R)-1-[4-Dimethylamino)-2-butynyl-3-hydroxy-2-pyrrolidinone] | 105 µM | 0.54 µM
CN(C)CC#CCN1CC[C@@H](OC(=O)C(C)(C)C)C1=O [(R)-2,2-Dimethylpropanoic acid 1-[4-(dimethylamino)-2-butynyl]-2-oxo-3-pyrrolidinyl ester] | 404 µM | –
CC(C)(C)C(=O)O[C@@H]1CCN(CC#CCN2CCCC2)C1=O [(R)-2,2-Dimethylpropanoic acid 2-oxo-1-[4-(1-pyrrolidinyl)-2-butynyl]-3-pyrrolidinyl ester] | 10.2 µM | 0.5 µM
CC(C)C(=O)O[C@@H]1CCN(CC#CCN2CCCC2)C1=O [(R)-2-Methylpropanoic acid 2-oxo-1-[4-(1-pyrrolidinyl)-2-butynyl]-3-pyrrolidinyl ester] | 87 µM | 0.135 µM
CC(=O)O[C@@H]1CCN(CC#CCN(C)CCO)C1=O [(R)-3-(Acetyloxy)-1-[4-[2-(hydroxyethyl)methylamino]-2-butynyl]-2-pyrrolidinone] | > 100 µM | 28.3 µM

Compound | Ki [1] | Ki [2]
CS[C@@H]1CCN(CC#CCN2CCCC2)C1=O [(R)-3-(Methylthio)-1-[4-(1-pyrrolidinyl)-2-butynyl]-2-pyrrolidinone] | 3.6 µM | 1.4 µM
N[C@@H]1CCN(CC#CCN2CCCC2)C1=O [(R)-3-Amino-1-[4-(1-pyrrolidinyl)-2-butynyl]-2-pyrrolidinone dihydrochloride] | 6.1 µM | 0.35 µM
CN(C)CC#CCN1CC[C@@H](N)C1=O [(R)-3-Amino-1-[4-(dimethylamino)-2-butynyl]-2-pyrrolidinone dihydrochloride] | > 100 µM | 0.89 µM
[N-]=[N+]=N[C@@H]1CCN(CC#CCN2CCCC2)C1=O [(R)-3-Azido-1-[4-(1-pyrrolidinyl)-2-butynyl]-2-pyrrolidinone] | 28 µM | 0.21 µM
CN(C)CC#CCN1CC[C@@H](N=[N+]=[N-])C1=O [(R)-3-Azido-1-[4-(dimethylamino)-2-butynyl]-2-pyrrolidinone] | > 100 µM | 0.5 µM
O=C1[C@H](O)CCN1CC#CCN1CCCC1 [(R)-3-Hydroxy-1-[4-(1-pyrrolidinyl)-2-butynyl]-2-pyrrolidinone] | 3.4 µM | 0.125 µM
CN(CC#CCN1CC[C@@H](O)C1=O)CCO [(R)-3-Hydroxy-1-[4-[(2-hydroxyethyl)methylamino]-2-butynyl]-2-pyrrolidinone] | > 100 µM | 1.8 µM
CN(CC#CCN1CC[C@@H](O)C1=O)CCCCO [(R)-3-Hydroxy-1-[4-[(4-hydroxybutyl)methylamino]-2-butynyl]-2-pyrrolidinone] | > 100 µM | 1.45 µM
CC(C)(C)C(=O)O[C@@H]1CCN(CC#CC[N+](C)(C)C)C1=O [(R)-3-[3-(2,2-Dimethyl-1-oxopropoxy)-2-oxo-1-pyrrolidinyl]-N,N, N-trimethyl-2-butyn-1-aminium iodide] | > 100 µM | 1.22 µM
CC(C)(C)[Si](C)(C)O[C@@H]1CCN(CC#CCn2ccnc2)C1=O [(R)-3-[[(1,1-Dimethylethyl)-dimethylsilyl]oxy]-1-[4-(1H-imidazol-1-yl)-2-butynyl]-2-pyrrolidinone] | > 100 µM | 14 µM
C[N+](C)(C)CC#CCN1CC[C@@H](N=[N+]=[N-])C1=O [(R)-4-(3-Azido-2-oxo-1-pyrrolidinyl)-N,N,N-trimethyl-2-butyn-1-aminium iodide] | 0.8 µM | 0.039 µM
CCCCCCCCCC(=O)O[C@@H]1CCN(CC#CC[N+](C)(C)C)C1=O [(R)-4-[2-Oxo-3-[(1-oxodecyl)-oxy]-1-pyrrolidinyl]-N,N, N-trimethyl-2-butyn-1-aminium iodide] | 0.2 µM | 0.05 µM
COC(=O)O[C@@H]1CCN(CC#CCN(C)C)C1=O [(R)-Carbonic acid 1-[4-(dimethylamino)-2-butynyl]-2-oxo-3-pyrrolidinyl methyl ester monohydrochloride] | 52 µM | 3.07 µM
CCCCCCCCOC(=O)O[C@@H]1CCN(CC#CCN(C)C)C1=O [(R)-Carbonic acid 1-[4-(dimethylamino)-2-butynyl]-2-oxo-3-pyrrolidinyl octyl ester] | 1.5 µM | 1.04 µM
CC(C)C(=O)O[C@H]1CCN(CC#CCN(C)C)C1=O [(S)-2-Methylpropanoic acid 1-[4-(dimethylamino)-2-butynyl]-2-oxo-3-pyrrolidinyl ester] | 610 µM | –
COC(=O)O[C@H]1CCN(CC#CCN2CCCC2)C1=O [(S)-Carbonic acid methyl 2-oxo-1-[4-(1-pyrrolidinyl)-2-butynyl]-3-pyrrolidinyl ester] | 5.4 µM and 10.4 µM | –

Reference: patent US5637731A (priority 1996, dated 1997)
